Data: the supplement of paper PMC10307832

Columns and labels:
Assay in all cases: relative viability (nuclei count vs DMSO), 5 days (fraction); higher = more cells survive
Imatinib + Foretinib = compound: Cc1ccc(NC(=O)c2ccc(CN3CCN(C)CC3)cc2)cc1Nc1nccc(-c2cccnc2)n1 [Imatinib] + COc1cc2c(Oc3ccc(NC(=O)C4(C(=O)Nc5ccc(F)cc5)CC4)cc3F)ccnc2cc1OCCCN1CCOCC1 [Foretinib] (partner 0.25 µM)
How it was run: (§1)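 Relative viability was taken as the ratio of nuclei in treated wells to nuclei in vehicle wells. Lung cancer cell lines in 1536-well plates received compounds by pin tool one day after seeding, either one drug alone or a fixed anchor-drug dose plus five library-drug doses (not always all listed) in √10 steps. Nuclei were counted on 4× images after 5 days of treatment, and values are medians of duplicate plates.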

Imatinib + Crizotinib = compound: Cc1ccc(NC(=O)c2ccc(CN3CCN(C)CC3)cc2)cc1Nc1nccc(-c2cccnc2)n1 [Imatinib] + C[C@@H](Oc1cc(-c2cnn(C3CCNCC3)c2)cnc1N)c1c(Cl)ccc(F)c1Cl [Crizotinib] (partner 1 µM)
How it was run: as §1

Imatinib + Phenformin = compound: Cc1ccc(NC(=O)c2ccc(CN3CCN(C)CC3)cc2)cc1Nc1nccc(-c2cccnc2)n1 [Imatinib] + N=C(N)NC(=N)NCCc1ccccc1 [Phenformin] (partner 250 µM)
How it was run: as §1

Imatinib + Vorinostat = compound: Cc1ccc(NC(=O)c2ccc(CN3CCN(C)CC3)cc2)cc1Nc1nccc(-c2cccnc2)n1 [Imatinib] + O=C(CCCCCCC(=O)Nc1ccccc1)NO [Vorinostat] (partner 1 µM)
How it was run: as §1

| Cell Line | relative viability (Imatinib + Foretinib; first compound 0.06325 µM) | relative viability (Imatinib + Foretinib; first compound 0.2 µM) | relative viability (Imatinib + Foretinib; first compound 0.6325 µM) | relative viability (Imatinib + Foretinib; first compound 2 µM) | relative viability (Imatinib + Crizotinib; first compound 0.02 µM) | relative viability (Imatinib + Crizotinib; first compound 0.06325 µM) | relative viability (Imatinib + Crizotinib; first compound 0.2 µM) | relative viability (Imatinib + Crizotinib; first compound 0.6325 µM) | relative viability (Imatinib + Crizotinib; first compound 2 µM) | relative viability (Imatinib + Phenformin; first compound 0.02 µM) | relative viability (Imatinib + Phenformin; first compound 0.06325 µM) | relative viability (Imatinib + Phenformin; first compound 0.2 µM) | relative viability (Imatinib + Phenformin; first compound 0.6325 µM) | relative viability (Imatinib + Phenformin; first compound 2 µM) | relative viability (Imatinib + Vorinostat; first compound 0.02 µM) | relative viability (Imatinib + Vorinostat; first compound 0.06325 µM) | relative viability (Imatinib + Vorinostat; first compound 0.2 µM) | relative viability (Imatinib + Vorinostat; first compound 0.6325 µM) | relative viability (Imatinib + Vorinostat; first compound 2 µM) | relative viability (Imatinib + Foretinib; first compound 0.02 µM) |
| --- | --- | --- | --- | --- | --- | --- | --- | --- | --- | --- | --- | --- | --- | --- | --- | --- | --- | --- | --- | --- |
| COR-L23 | 1 | 1.01 | 0.984 | 1.01 | 0.807 | 0.73 | 0.809 | 0.685 | 0.632 | 0.469 | 0.541 | 0.496 | 0.419 | 0.422 | 0.523 | 0.519 | 0.424 | 0.399 | 0.41 | – |
| ChaGo-K-1 | 0.936 | 0.916 | 0.916 | 0.958 | 1.12 | 1.35 | 1.31 | 0.976 | 1.05 | 0.425 | 0.485 | 0.505 | 0.426 | 0.432 | 0.804 | – | 0.79 | 0.761 | 0.697 | 0.921 |
| NCI-H1975 | 0.986 | 0.879 | 0.954 | 0.871 | 1.1 | 1.16 | 1.1 | 0.916 | 1.07 | 0.446 | 0.43 | 0.407 | 0.425 | 0.357 | 0.698 | 0.741 | 0.73 | 0.686 | 0.686 | 1.09 |
| NCI-H1651 | 0.619 | 0.87 | 0.79 | 0.77 | 0.916 | 0.775 | – | 0.855 | 0.891 | 0.338 | 0.35 | 0.329 | 0.339 | 0.374 | 0.603 | 0.49 | 0.631 | 0.547 | 0.548 | 0.902 |
| NCI-H23 | 1.15 | 1.2 | 1.07 | 1.13 | 0.573 | 0.712 | 0.584 | 0.374 | 0.398 | 0.863 | 0.84 | 0.768 | 0.764 | 0.731 | 0.686 | 0.669 | 0.578 | 0.453 | 0.488 | 1.13 |
| LCLC-97TM1 | – | 1.03 | 0.927 | 0.905 | – | – | 0.358 | 0.34 | 0.407 | 0.409 | – | 0.458 | 0.498 | 0.437 | 0.798 | – | 0.959 | 0.855 | 0.767 | 0.934 |
